Assays:
giant foxtail = assay: Test B pre/postemergence giant foxtail; format: in vivo, Setaria faberii
In short: (§1)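 Herbicidal effect was estimated by eye on a ten-point control scale after plants spent twelve to sixteen days in a greenhouse following soil or foliar treatment. Foliar sprays targeted plants at one to four leaves; all doses were formulated in a non-phytotoxic solvent with surfactant.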

crabgrass = assay: Test B pre/postemergence crabgrass; format: in vivo, Digitaria sanguinalis
In short: as §1

duck salad = assay: Test B flood test duck salad; format: in vivo, Heteranthera limosa
In short: (§2)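 Read-out is a visual response score from 0 (no effect) to 10 (complete control), assigned by comparison with untreated controls. Treatment was applied at the 2-leaf stage, and plants stayed in the greenhouse for twelve to sixteen days before scoring.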

rape = assay: Test B pre/postemergence rape; format: in vivo, Brassica napus
In short: as §1

bedstraw = assay: Test B pre/postemergence bedstraw; format: in vivo, Galium aparine
In short: as §1

wild oat = assay: Test B pre/postemergence wild oat; format: in vivo, Avena fatua
In short: as §1

velvetleaf = assay: Test B pre/postemergence velvetleaf; format: in vivo, Abutilon theophrasti
In short: as §1

cocklebur = assay: Test B pre/postemergence cocklebur; format: in vivo, Xanthium strumarium
In short: as §1

purple nutsedge = assay: Test B pre/postemergence purple nutsedge; format: in vivo, Cyperus rotundus
In short: as §1

smallflower flatsedge = assay: Test B flood test smallflower flatsedge; format: in vivo, Cyperus difformis
In short: as §2

soybean = assay: Test B pre/postemergence soybean; format: in vivo, Glycine max
In short: as §1

corn = assay: Test B pre/postemergence corn; format: in vivo, Zea mays
In short: as §1

wheat = assay: Test B pre/postemergence wheat; format: in vivo, Triticum aestivum
In short: as §1

pigweed = assay: Test B pre/postemergence pigweed; format: in vivo, Amaranthus retroflexus
In short: as §1

rice = assay: Test B flood test rice; format: in vivo, Oryza sativa
In short: as §2

morningglory = assay: Test B pre/postemergence morningglory; format: in vivo, Ipomoea hederacea
In short: as §1

[1] = Postemergence, Rate 62 g/ha, scale of 0 to 10, 0 is no effect, 10 is complete control
[2] = Postemergence, Rate 125 g/ha, scale 0 to 10, 0 is no effect, 10 is complete control
[3] = Postemergence, Rate 500 g/ha, scale 0 to 10, 0 is no effect, 10 is complete control
[4] = Preemergence, Rate 62 g/ha, scale of 0 to 10 where 0 is no effect and 10 is complete control
[5] = Preemergence, Rate 125 g/ha, scale 0 to 10, 0 is no effect, 10 is complete control
[6] = Preemergence, Rate 500 g/ha, scale of 0 to 10 where 0 is no effect and 10 is complete control
[7] = Rate 250 g/ha, Postemergence, scale of 0 to 10 where 0 is no effect and 10 is complete control
[8] = Rate 62 g/ha, flood test species, Pre-emergence, visual evaluation after twelve to sixteen days
[9] = Rate 125 g/ha, under heading Pre-emergence, flood test species, visual evaluation after twelve to sixteen days
[10] = Rate 250 g/ha, Pre-emergence (flood test species), scale 0 to 10, 0 is no effect, 10 is complete control
[11] = Rate 500 g/ha, Pre-emergence section of Table B, 0 to 10 scale (0 no effect, 10 complete control)

SMILES: CC(C)N(C(=O)n1oc(=O)n(CCC2OCCCO2)c1=O)c1ccc(Cl)cc1 [Compound 532]
- Giant foxtail plant response rating (giant foxtail; [1]): 0
- Giant foxtail plant response rating (giant foxtail; [2]): 4
- Plant response rating, Giant foxtail (giant foxtail; [3]): 8
- Plant response rating, Giant foxtail (giant foxtail; [4]): 10
- Giant foxtail plant response rating (giant foxtail; [5]): 10
- Giant foxtail plant response rating (0 to 10 scale) (giant foxtail; Preemergence, Rate 250 g/ha): 10
- Giant foxtail plant response rating (giant foxtail; [6]): 10
- Plant response rating, Giant foxtail (giant foxtail; [7]): 4
- Crabgrass plant response rating (crabgrass; [1]): 4
- Crabgrass plant response rating (crabgrass; [2]): 4
- Plant response rating, Crabgrass (crabgrass; [3]): 9
- Plant response rating, Crabgrass (crabgrass; [4]): 9
- Crabgrass plant response rating (crabgrass; [5]): 9
- Crabgrass plant response rating (0 to 10 scale) (crabgrass; Preemergence, Rate 250 g/ha): 10
- Crabgrass plant response rating (crabgrass; [6]): 10
- Plant response rating, Crabgrass (crabgrass; [7]): 7
- Plant response rating, Ducksalad (0 to 10 scale, 0 is no effect, 10 is complete control) (duck salad; [8]): 8
- Ducksalad plant response rating (0 to 10 scale, 0 is no effect, 10 is complete control) (duck salad; [9]): 8
- Ducksalad plant response rating (duck salad; [10]): 9
- Ducksalad plant response rating (duck salad; [11]): 9
- Rape plant response rating (rape; [1]): 0
- Rape plant response rating (rape; [2]): 0
- Plant response rating, Rape (rape; [3]): 2
- Plant response rating, Rape (rape; [4]): 0
- Rape plant response rating (rape; [5]): 0
- Rape plant response rating (0 to 10 scale) (rape; Preemergence, Rate 250 g/ha): 0
- Rape plant response rating (rape; [6]): 0
- Plant response rating, Rape (rape; [7]): 2
- Bedstraw plant response rating (bedstraw; [1]): 0
- Bedstraw plant response rating (bedstraw; [2]): 0
- Plant response rating, Bedstraw (bedstraw; [3]): 0
- Plant response rating, Bedstraw (bedstraw; [4]): 0
- Bedstraw plant response rating (bedstraw; [6]): 0
- Plant response rating, Bedstraw (bedstraw; [7]): 0
- Wild oats plant response rating (wild oat; [1]): 0
- Wild oats plant response rating (wild oat; [2]): 0
- Plant response rating, Wild oats (wild oat; [3]): 0
- Plant response rating, Wild oats (wild oat; [4]): 0
- Wild oats plant response rating (wild oat; [5]): 0
- Wild oats plant response rating (0 to 10 scale) (wild oat; Preemergence, Rate 250 g/ha): 0
- Wild oats plant response rating (wild oat; [6]): 0
- Plant response rating, Wild oats (wild oat; [7]): 0
- Velvetleaf plant response rating (velvetleaf; [1]): 0
- Velvetleaf plant response rating (velvetleaf; [2]): 0
- Plant response rating, Velvetleaf (velvetleaf; [3]): 2
- Plant response rating, Velvetleaf (velvetleaf; [4]): 0
- Velvetleaf plant response rating (velvetleaf; [5]): 0
- Velvetleaf plant response rating (0 to 10 scale) (velvetleaf; Preemergence, Rate 250 g/ha): 0
- Velvetleaf plant response rating (velvetleaf; [6]): 4
- Plant response rating, Velvetleaf (velvetleaf; [7]): 2
- Cocklebur plant response rating (cocklebur; [1]): 0
- Cocklebur plant response rating (cocklebur; [2]): 0
- Plant response rating, Cocklebur (cocklebur; [3]): 4
- Plant response rating, Cocklebur (cocklebur; [4]): 0
- Cocklebur plant response rating (cocklebur; [5]): 0
- Cocklebur plant response rating (0 to 10 scale) (cocklebur; Preemergence, Rate 250 g/ha): 0
- Cocklebur plant response rating (cocklebur; [6]): 0
- Plant response rating, Cocklebur (cocklebur; [7]): 2
- Nutsedge plant response rating (purple nutsedge; [1]): 4
- Nutsedge plant response rating (purple nutsedge; [2]): 0
- Plant response rating, Nutsedge (purple nutsedge; [4]): 0
- Nutsedge plant response rating (purple nutsedge; [5]): 0
- Nutsedge plant response rating (0 to 10 scale) (purple nutsedge; Preemergence, Rate 250 g/ha): 0
- Nutsedge plant response rating (purple nutsedge; [6]): 0
- Plant response rating, S. Flatsedge (0 to 10 scale, 0 is no effect, 10 is complete control) (smallflower flatsedge; [8]): 9
- S. Flatsedge plant response rating (0 to 10 scale, 0 is no effect, 10 is complete control) (smallflower flatsedge; [9]): 8
- S. Flatsedge plant response rating (smallflower flatsedge; [10]): 9
- S. Flatsedge plant response rating (smallflower flatsedge; [11]): 9
- Soybean plant response rating (soybean; [1]): 0
- Soybean plant response rating (soybean; [2]): 2
- Plant response rating, Soybean (soybean; [3]): 5
- Plant response rating, Soybean (soybean; [4]): 0
- Soybean plant response rating (soybean; [5]): 0
- Soybean plant response rating (0 to 10 scale) (soybean; Preemergence, Rate 250 g/ha): 0
- Soybean plant response rating (soybean; [6]): 0
- Plant response rating, Soybean (soybean; [7]): 5
- Corn plant response rating (corn; [1]): 2
- Corn plant response rating (corn; [2]): 0
- Plant response rating, Corn (corn; [3]): 2
- Plant response rating, Corn (corn; [4]): 0
- Corn plant response rating (corn; [5]): 0
- Corn plant response rating (0 to 10 scale) (corn; Preemergence, Rate 250 g/ha): 0
- Corn plant response rating (corn; [6]): 0
- Plant response rating, Corn (corn; [7]): 0
- Wheat plant response rating (wheat; [1]): 0
- Wheat plant response rating (wheat; [2]): 0
- Plant response rating, Wheat (wheat; [3]): 0
- Plant response rating, Wheat (wheat; [4]): 0
- Wheat plant response rating (wheat; [5]): 0
- Wheat plant response rating (0 to 10 scale) (wheat; Preemergence, Rate 250 g/ha): 0
- Wheat plant response rating (wheat; [6]): 0
- Plant response rating, Wheat (wheat; [7]): 0
- Redroot pigweed plant response rating (pigweed; [1]): 0
- Redroot pigweed plant response rating (pigweed; [2]): 0
- Plant response rating, Redroot pigweed (pigweed; [3]): 2
- Plant response rating, Redroot pigweed (pigweed; [4]): 0
- Redroot pigweed plant response rating (pigweed; [5]): 0
- Redroot pigweed plant response rating (0 to 10 scale) (pigweed; Preemergence, Rate 250 g/ha): 0
- Redroot pigweed plant response rating (pigweed; [6]): 0
- Plant response rating, Redroot pigweed (pigweed; [7]): 0
- Plant response rating, Rice (0 to 10 scale, 0 is no effect, 10 is complete control) (rice; [8]): 0
- Rice plant response rating (0 to 10 scale, 0 is no effect, 10 is complete control) (rice; [9]): 1
- Rice plant response rating (rice; [10]): 9
- Rice plant response rating (rice; [11]): 8
- Morningglory plant response rating (morningglory; [1]): 0
- Morningglory plant response rating (morningglory; [2]): 3
- Plant response rating, Morningglory (morningglory; [3]): 5
- Plant response rating, Morningglory (morningglory; [4]): 0
- Morningglory plant response rating (morningglory; [5]): 0
- Morningglory plant response rating (0 to 10 scale) (morningglory; Preemergence, Rate 250 g/ha): 0
- Morningglory plant response rating (morningglory; [6]): 0
- Plant response rating, Morningglory (morningglory; [7]): 5
